Experiment [1] concerns C2C12 myotubes. In words: C2C12 myotube diameter. The experiment is classed as cell-based. An excerpt:
C2C12 cells can be obtained from the American Type Tissue Culture Bank and propagated in standard growth media containing 10% horse serum. When cells reached 70% confluency the media is changed to differentiation media containing 2% horse serum. Three days after start of differentiation multinucleated myotubes should be present, with visible striations, indicating differentiation. hGH can be used as a positive control for activating the IGF-1 receptor, or alternatively, combined with a PTP1B inhibitor to assess synergistic or additive effects. Consequently, PTP1B inhibitors and/or hGH can be added to the media for various times.
Myotube Diameter Myotube diameter can be assessed 24 hours after addition of PTP1B inhibitor and/or hGH to myotube media. Cells are washed in saline and fixed in gluteraldehyde. Images can be obtained on an inverted microscope using the green fluorescent channel to visualize the auto-fluorescence induced by the gluteraldehyde fixation. Images are printed out at standard magnification and the sixty largest myotubes measured at their largest diameter (as previously published). The fifty largest myotubes in each group can be statistically compared using the Kruskal-Wallis One Way Analysis on Ranks. Differences are considered significant if p<0.05 and designated by an asterisk in FIG. 1. […]

Experiment [2] has as its system AKT phosphorylation. Particulars: hGH treatment of C2C12; cited from earlier work.

Regarding “IGF1: human insulin-like growth factor1 or IGF1, however formulated or stabilized”, the myotube hypertrophy result in experiment [1] (IGF1 alone added to C2C12 myotubes media at 10 ng/ml) is “significantly hypertrophied”.
As for “hGH: Human Growth Hormone, can be purchased from Bachem H-3148”, in experiment [1] (hGH alone), the C2C12 myotube diameter result is “significant increase”. In experiment [2], the AKT phosphorylation result is on record as “cause AKT phosphorylation”.

The values are drawn from patent US20100305036A1, “COMBINATION OF PROTEIN TYROSINE PHOSPHATASE INHIBITORS AND HUMAN GROWTH HORMONE FOR THE TREATMENT OF MUSCLE ATROPHY AND RELATED DISORDERS” (priority 2007, published 2010).
